Where two headings read alike, the source gives them in different places.
Columns and labels:
Assay type in all cases: in vivo, male Wistar rats
vesamicol receptor = experiment: Blocking experiment 2: effect of vesamicol pretreatment on radiotracer accumulation; conditions: 30 min postradiotracer
Protocol: (§1) Two separate experiments each utilizing two groups of male Wistar rats (n=3) were performed. […]
(§2) At time = 0, animals in group 1 injected intravenously with vehicle (50%)
(§3) aq. EtOH; 0.2 ml), while animals in group 2 each received an i.v.
(§4) injection of (dl)vesamicol. HCl (1.01 umol/Kg0). After 15 min, both group
(§5) were injected with the radiotracer, allowed to recover and sacrificed 30
(§6) min postradiotracer injection.

[1] = as above; conditions: rat, iv, 2 uCi, 30 min postradiotracer
Protocol: as §1, §2, §3, §4, §5, §6

[2] = Tissue distribution of radiotracer in rats; conditions: for tissue uptake at 5 min / tissue uptake at 0.5 h / tissue uptake at 1 h / tissue uptake at 3 h: rat
Protocol: Tissue Distribution Experiments
Four groups of male Wistar rats (n=4) weighing 200-350 g were used in these experiments. Each animal received, while under ether anesthesia, an intravenous injection of the radiotracer (3-5 uCi) dissolved in 0.1 mL of 50% aqueous ethanol. At 5, 30, 60 and 180 min post-injection, blood was collected from the anesthetized animal by cardiac puncture, and the animal was immediately sacrificed by cardiectomy. The organs and tissues of interest were harvested, transferred to preweighed tubes and counted in a Beckman gamma counter. The tubes were subsequently reweighed to give the weight of the corresponding tissues. Preweighed tubes containing 1 mL samples of a 1:100 dilution of the injected dose were also counted and used as reference for calculating the tissue accumulation of radioactivity. The accumulation of radiotracer was expressed as a percentage of injected dose per gram of tissue.
The animals were injected intravenously with 4.9 uCi of the radiotracer i
0.1 ml of 50% aq. EtOH.
The animals were injected with 3.7 uCi of the radiotracer in 0.1 ml of 50

[3] = Group 2: (dl)vesamicol.HCl 1.01 umol/Kg pretreatment

In the case of `O[C@@H]1CCN(Cc2cccc([125I])c2)C[C@H]1N1CCC(c2ccccc2)CC1` (single isomer, unassigned) [(-)-[^125 I]12h, (+)- and (-)-4-hydroxy-1-(3-[I^125]iodobenzyl)-3-(4-phenyl-piperidinyl)piperidine], the “Accumulation after pretreatment, ratio brain/blood” value (vesamicol receptor; Group 1: vehicle pretreatment) is reported as 6.45, the “Accumulation after pretreatment, ratio heart/blood” value (vesamicol receptor; Group 1: vehicle pretreatment) is reported as 5.59 and the “Accumulation after pretreatment, ratio brain/blood” value (vesamicol receptor; [3]) is reported as 2.75. The “Accumulation after pretreatment, ratio heart/blood” value (vesamicol receptor; [3]) was 2.40, the tissue uptake at 0.5 h ([1]; blood, Group 1: vehicle pretreatment, read-out: Accumulation after pretreatment, blood) was 0.11 %ID/g and the tissue uptake at 0.5 h ([1]; blood, Group 2: (dl)vesamicol.HCl 1.01 umol/Kg pretreatment, read-out: Accumulation after pretreatment, blood) was 0.12 %ID/g. It also gave a tissue uptake at 0.5 h ([1]; brain, Group 1: vehicle pretreatment, read-out: Accumulation after pretreatment, brain) of 0.68 %ID/g, a tissue uptake at 0.5 h ([1]; brain, Group 2: (dl)vesamicol.HCl 1.01 umol/Kg pretreatment, read-out: Accumulation after pretreatment, brain) of 0.34 %ID/g and a tissue uptake at 0.5 h ([1]; gonads, Group 1: vehicle pretreatment, read-out: Accumulation after pretreatment, gonads) of 0.15 %ID/g. It also gave a tissue uptake at 0.5 h ([1]; gonads, Group 2: (dl)vesamicol.HCl 1.01 umol/Kg pretreatment, read-out: Accumulation after pretreatment, gonads) of 0.16 %ID/g, a tissue uptake at 0.5 h ([1]; heart, Group 1: vehicle pretreatment, read-out: Accumulation after pretreatment, heart) of 0.59 %ID/g and a tissue uptake at 0.5 h ([1]; heart, Group 2: (dl)vesamicol.HCl 1.01 umol/Kg pretreatment, read-out: Accumulation after pretreatment, heart) of 0.3 %ID/g. It also gave a tissue uptake at 0.5 h ([1]; kidney, Group 1: vehicle pretreatment, read-out: Accumulation after pretreatment, kidney) of 2.45 %ID/g, a tissue uptake at 0.5 h ([1]; kidney, Group 2: (dl)vesamicol.HCl 1.01 umol/Kg pretreatment, read-out: Accumulation after pretreatment, kidney) of 1.13 %ID/g and a tissue uptake at 0.5 h ([1]; liver, Group 1: vehicle pretreatment, read-out: Accumulation after pretreatment, liver) of 1.91 %ID/g. For the same molecule, the tissue uptake at 0.5 h ([1]; liver, Group 2: (dl)vesamicol.HCl 1.01 umol/Kg pretreatment, read-out: Accumulation after pretreatment, liver) was 1.89 %ID/g, the tissue uptake at 0.5 h ([1]; lung, Group 1: vehicle pretreatment, read-out: Accumulation after pretreatment, lung) was 2.36 %ID/g and the tissue uptake at 0.5 h ([1]; lung, Group 2: (dl)vesamicol.HCl 1.01 umol/Kg pretreatment, read-out: Accumulation after pretreatment, lung) was 1.59 %ID/g. It also gave a tissue uptake at 0.5 h ([1]; muscle, Group 1: vehicle pretreatment, read-out: Accumulation after pretreatment, muscle) of 0.18 %ID/g, a tissue uptake at 0.5 h ([1]; muscle, Group 2: (dl)vesamicol.HCl 1.01 umol/Kg pretreatment, read-out: Accumulation after pretreatment, muscle) of 0.16 %ID/g and a tissue uptake at 0.5 h ([1]; spleen, Group 1: vehicle pretreatment, read-out: Accumulation after pretreatment, spleen) of 1.05 %ID/g. The tissue uptake at 0.5 h ([1]; spleen, Group 2: (dl)vesamicol.HCl 1.01 umol/Kg pretreatment, read-out: Accumulation after pretreatment, spleen) was 0.8 %ID/g, the tissue uptake at 0.5 h ([1]; thyroid, Group 1: vehicle pretreatment, read-out: Accumulation after pretreatment, thyroid) was 2.62 %ID/g and the tissue uptake at 0.5 h ([1]; thyroid, Group 2: (dl)vesamicol.HCl 1.01 umol/Kg pretreatment, read-out: Accumulation after pretreatment, thyroid) was 4.56 %ID/g. The Ratio brain/blood ([2]; 5 min, iv) was 4.27, the Ratio heart/blood ([2]; 5 min, iv) was 6.07 and the radioactivity in brain ([2]; 5 min post-injection, iv) was 1.67 % of the injected dose. It also gave a Ratio brain/blood ([2]; 30 min, iv) of 9.06, a Ratio heart/blood ([2]; 30 min, iv) of 6.87 and a Ratio brain/blood ([2]; 60 min, iv) of 8.51. The Ratio heart/blood ([2]; 60 min, iv) was 5.97, the Ratio brain/blood ([2]; 180 min, iv) was 9.87 and the Ratio heart/blood ([2]; 180 min, iv) was 5.32. For the same molecule, the “brain accumulation and retention (in words)” value ([2]; compared with the (+)-isomer) was “higher accumulation and longer retention in the brain”, the tissue uptake at 5 min ([2]; blood, 5 min, iv, read-out: Tissue distribution, blood) was 0.22 %ID/g and the tissue uptake at 0.5 h ([2]; blood, 30 min, iv, read-out: Tissue distribution, blood) was 0.11 %ID/g. It also gave a tissue uptake at 1 h ([2]; blood, 60 min, iv, read-out: Tissue distribution, blood) of 0.1 %ID/g, a tissue uptake at 3 h ([2]; blood, 180 min, iv, read-out: Tissue distribution, blood) of 0.1 %ID/g and a tissue uptake at 5 min ([2]; brain, 5 min, iv, read-out: Tissue distribution, brain) of 0.92 %ID/g. The tissue uptake at 0.5 h ([2]; brain, 30 min, iv, read-out: Tissue distribution, brain) was 0.99 %ID/g, the tissue uptake at 1 h ([2]; brain, 60 min, iv, read-out: Tissue distribution, brain) was 0.83 %ID/g and the tissue uptake at 3 h ([2]; brain, 180 min, iv, read-out: Tissue distribution, brain) was 0.92 %ID/g. For the same molecule, the tissue uptake at 5 min ([2]; gonads, 5 min, iv, read-out: Tissue distribution, gonads) was 0.19 %ID/g, the tissue uptake at 0.5 h ([2]; gonads, 30 min, iv, read-out: Tissue distribution, gonads) was 0.23 %ID/g and the tissue uptake at 1 h ([2]; gonads, 60 min, iv, read-out: Tissue distribution, gonads) was 0.17 %ID/g. For the same molecule, the tissue uptake at 3 h ([2]; gonads, 180 min, iv, read-out: Tissue distribution, gonads) was 0.2 %ID/g, the tissue uptake at 5 min ([2]; heart, 5 min, iv, read-out: Tissue distribution, heart) was 1.32 %ID/g and the tissue uptake at 0.5 h ([2]; heart, 30 min, iv, read-out: Tissue distribution, heart) was 0.75 %ID/g. The tissue uptake at 1 h ([2]; heart, 60 min, iv, read-out: Tissue distribution, heart) was 0.58 %ID/g.

Source: US5876694A, “Azavesamicols” (priority 1997, dated 1999)
